How the values were obtained:
[1] = system: HCT15, SW48 and HCT116 cells; assay: HERV-K expression in CRC cell lines; assay type: cell-based
Description: The expression of HERV-K was detected in several CRC cell lines and tissues, but not in benign colon tissues. […] The forced overexpression of HERV-K with these agents that induce expression of HERV-K by innate immune response (Poly I:C treatment) or LTR hypomethylation (5-Aza) would provoke the cancer cells to increase production of a target that would make them more susceptible to targeted therapy to include targeted immunotherapy.

[2] = system: MDA-MB-231, Hs578T, and MCF-7 breast cancer cells; assay: proliferation and drug sensitivity of breast cancer cells after HERV-K KD; assay type: cell-based, human; conditions: for sensitivity of breast cancer cells toward drug: MCF-7 and Hs578T stably transduced with shRNAenv vs shRNAc or parent cells
Description: Here, the inventors further determined the effects of HERV-K env gene KD in breast cancer cells treated with breast cancer chemotherapy drugs.

[3] = system: breast cancer cell lines; assay: expression of HERV-K and signaling proteins after H2O2 or paclitaxel; assay type: cell-based, human; conditions: for expression of signaling proteins by immunoblot: paclitaxel (Tax, 0.1 μM) or H2O2 (5 μM or 10 μM), vs parent cells
[4] = system: breast cancer cell lines
[5] = system: MCF-7, HS578T, MDA-MB-231 cells; assay: transwell migration and invasion; assay type: cell-based, human; set-up: dose or concentration left out as unconfirmed
Protocol: The effects of KD of HERV-K env on migration and invasion were investigated using transwell plates. After transwell plates (8 μm) were rehydrated for 2 hours, 2.5×10^4 cells were seeded into the transwell and cultured. The transwell was then removed and the cells that had migrated into the lower chamber were counted. For the invasion assay, transwells were coated with Matrigel, and cells remaining in the upper chamber were removed with a cotton swab. The invaded cells on the reverse side of the Matrigel were counted under a light microscope (40× magnification) after the cells were fixed with methanol and stained with Giemsa. Ten random fields were counted. The average number of invaded cells per field was presented as mean±SD (n=10 fields). Triplicate assays were performed for each experiment.

[6] = system: MCF-7 and Hs578T breast cancer cell lines; assay: cell cycle distribution by FACS; assay type: cell-based, human; conditions: Hs578T cells, especially in the shRNAenv cells
[7] = system: 4T1pLVXKenv tumors; assay: 4T1pLVXKenv combination treatment, Treg cells; assay type: in vivo, mouse; conditions: pLVXKenv vs pLVX; 6H5 once, IL2 for five days
Protocol: BALB/c mice were inoculated with 3×10^5 4T1pLVXKenv or 4T1pLVX cells on day 0. These mice were then treated: FIG. 23B with CpG (1.24 nmol), HERV-K SU protein (10 μg, 20 μg, and 20 μg), or CpG+ HERV-K SU protein on days 6, 13, and 19. Tumor weights were compared at week 4 post tumor cell inoculation; (FIG. 23C) with Aza (0.5 mg/kg) daily for five days in two weekly cycles, anti-PD-1 (200 μg per mouse every four days; four treatments), or Aza+anti-PD-1. Mice treated with PBS were used as controls, and tumor weights were compared among groups; and (FIG. 23D) with anti-HERV-K antibody (6H5; once) and with IL2 (for five days).

[8] = system: HERV-K env protein; assay: antibody internalization; assay type: cell-based; conditions: 37° C., 0, 5, 30, and 45 minutes; permeabilized cells
Protocol: To determine antibody internalization of humanized and murine antibodies, cells were incubated with HUM1 or m6H5 at 37° C. for different time intervals (0, 5, 30, and 45 minutes). At each time point, cells were fixed. Half of the cells were permeabilized and half were not permeabilized. Anti-human IgG 488 or anti-mouse IgG 488 was used to detect the percentages of antibody-bound HERV-K env protein that remained on the cell surface in the cells that were not permeabilized. A reduced surface expression of HERV-K positive cells was observed. The internalization of rate was determined in the cells that were permeabilized. The equation for the percentage of internalization at each point was 100−(% label at time 0).

[9] = system: HERV-K envelope surface fusion protein; assay: ELISA binding to HERV-K envelope surface fusion protein; set-up: species or system human
Description: An ELISA assay was used to compare antigen binding sensitivity and specificity of hu6H5 vs. m6H5.

[10] = system: ERVK6 and HERV-K envelope surface fusion protein; assay: immunoblot on HERV-K Env surface proteins; assay type: binding, human
[11] = system: MDA-MB-231 cells; assay: Live/dead cell viability assay; assay type: cell-based, human; conditions: 10 μg/ml, sixteen hours
Protocol: Live/dead cell viability assays were used to assess induction of cell death after anti-HERV-K antibody treatment. MDA-MB-231 cells were seeded overnight in 24-well plates. Cells were treated with various antibodies (10 μg/ml) and incubated for sixteen hours at 37C in a cell culture incubator. Calcein Am (4 μl/10 ml media) and Eth-D1 (20 μl/10 ml media), 200 μl per well, were then added and cells were incubated for thirty minutes at room temperature. EthD-1 penetrates cells with membrane damage and binds to nucleic acids to produce red fluorescence in dead cells. Live cells (green color; Calcein Am) and putative dead cells (red color; EthD-1) were identified using the co-stained Live/Dead Viability Assay. Human IgG or mouse IgG were used control.

Nc1ncn([C@@H]2O[C@H](CO)[C@@H](O)[C@H]2O)c(=O)n1 [5-Azacytidine]
expression of HERV-K [1]: Increased expression of HERV-K

Poly I:C
expression of HERV-K [1]: Increased expression of HERV-K

COc1cccc2c1C(=O)c1c(O)c3c(c(O)c1C2=O)C[C@@](O)(C(=O)CO)C[C@@H]3O[C@H]1C[C@H](N)[C@H](O)[C@H](C)O1 [doxorubicin]
sensitivity of breast cancer cells toward drug [2]: Enhanced sensitivity

OO [H2O2, Hydrogen Peroxide]
effect on shRNAenv-induced block in expression ([3]; 5 μM, HERV-K KD cells): reversed the shRNAenv-induced block in expression of HERV-K, HIF-1α, P-RSK, and P-ERK in a time-dependent manner
expression at elevated concentrations ([3]; 25 μM and 50 μM): decreased expression of HERV-K and corresponding decreased HIF-1a and Ras/ERK signaling
protein expression at graded concentrations ([3]; 1-50 μM, three breast cancer cell lines): enhanced expression of HERV-K, Ras, p-ERK, and HIF-1a proteins at H2O2 concentrations of 5 μM and 10 μM
expression of HERV-K mRNA ([3]; 5 M, 0 hours to 48 hours, three breast cancer cell lines): elevated expression of HERV-K mRNA
expression of HERV-K, p-MEK, and p-ERK by immunoblot ([3]; 18 hours): enhanced expression of HERV-K, p-MEK, and p-ERK
expression of EMT markers ([3]; MDA-MB-231 cells): Increased expression of EMT markers including N-cadherin, vimentin, and Slug, and decreased expression of E-Cadherin
expression of signaling proteins by immunoblot [3]: increased expression of the breast cancer relevant signaling proteins HIF-1α, HERV-K, p-RSK, p-ERK, ERK, and Ras
cell proliferation ([4]; 5 μM, after 96 hours): Significantly increased cell proliferation
migration ([4]; after 48 hours for MDA-MB-231 and after 72 hours for MCF-7): increased migration

CC(=O)O[C@H]1C(=O)[C@@]2(C)[C@H]([C@H](OC(=O)c3ccccc3)[C@]3(O)C[C@H](OC(=O)[C@H](O)[C@@H](NC(=O)c4ccccc4)c4ccccc4)C(C)=C1C3(C)C)[C@]1(OC(C)=O)CO[C@@H]1C[C@@H]2O [paclitaxel]
expression of signaling proteins by immunoblot [3]: increased expression of the breast cancer relevant signaling proteins HIF-1α, HERV-K, p-RSK, p-ERK, ERK, and Ras
migration and invasion [5]: Significantly reduced migration and invasion
cell cycle arrest [6]: G2 arrest
sensitivity of breast cancer cells toward drug [2]: Enhanced sensitivity
cell proliferation ([2]; cells with HERV-K env KD by shRNAenv vs parent cells or shRNAc): Significantly reduced cell proliferation

B1: m6H5: murine anti-HERV-K monoclonal antibody (antibody, V domains shown)
VH: QVKLQQSGPDLVKPGASVKISCKASGYSFTGYYMHWVKQSHGKSLEWIGRVNPNSGGTSYNQKFKDKAILTVDKSSSTAYMELRSLTSEDSAVYYCARSKGNYFYAMDYWGQGTTVTVSS
VL: DIELTQSPASLAVSLGQRATISCRASESVDSHGTSFMHWYQQKPGQPPKFLIYRASNLESGIPARFSGSGSRTDFTLTINPVETDDVAIYYCQQSNEDPPTFGGGTKLEIK
T regulatory (Treg) cells [7]: Significantly decreased T regulatory (Treg) cells
internalized HERV-K positive cells [8]: increased expression of internalized HERV-K positive cells
binding detected by the inventors using ELISA or Western blot assays [9]: readily detected
binding by immunoblot to two HERV-K Env surface proteins [10]: shown by immunoblot to bind
dead cells (red fluorescence, EthD-1) [11]: red fluorescent cells were observed

Reference: patent US20250145693A1, “HERV-K ANTIBODY, CELL, VACCINE, AND DRUG THERAPEUTICS” (priority 2021, published 2025)
